tested on: 454973-116-R2-J3-PDC spheroids, viability, % test/control; experiment: Anticancer human tumor 454973-116-R2-J3-PDC patient-derived pancreatic carcinoma cell line growth inhibition [GQUAD]; conditions: second compound 3.16 µM; first compound 0.1 µM; stronger effect = lower value; spheroids with HUVEC and MSC
From the text: DNA G-quadruplex Stabilizer Agents in Combinations in Complex Spheroids
A high-throughput screen of multi-cell type tumor spheroids was designed to identify active combinations of DNA G-quadruplex stabilizer agents and targeted small molecules. Complex spheroids include a stromal component modeled by human endothelial cells (HUVEC) and fibroblasts modeled by human mesenchymal stem cells (MSCs). The concentration ranges selected for each drug and investigational agent were based upon clinically achievable concentrations if the clinical Cmax of the agent was known.
Compounds. The drugs and investigational agents: pidnarulex (CX-5461; NSC782164), APTO-253 (NSC789042), BRACO-19 (NSC847499), peposertib (NSC802822), ceralasertib (NSC780249), elimusertib (NSC800525), camonsertib (NSC841442), AZD-1390 (NSC803789), olaparib (NSC753686), talazoparib (NSC767125), ART-558 (NSC835418), sotorasib (NSC818433), MRTX-1133 (NSC836407), SN-38 (NSC673596), topotecan (NSC609699), etoposide (NSC141540), doxorubicin (NSC123127), gemcitabine (NSC613327), 5-fluorouracil (NSC19893), paclitaxel (NSC125973), vemurafenib (NSC761431), panobinostat (NSC761190), R-306465 (JNJ-16241199; NSC773264), adavosertib (NSC754352), TP-3654 (NSC805149), carboplatin (NSC241240), KSQ-4279 (NSC840948), and staurosporine (NSC755774) were obtained from the National Cancer Institute (NCI) Developmental Therapeutics Program Chemical Repository (34). The FDA-approved anticancer drug set is available from the NCI Developmental Therapeutics Program. […] The stock solutions were prepared in dimethyl sulfoxide (DMSO, Sigma-Aldrich, St. Louis, MO, cat. D2650) at 800-fold the tested concentration and stored at -70 degrees C prior to their use. All drugs and investigational agents were tested over a range starting from a high concentration at or near the clinical Cmax and decreasing in half-log increments. If the clinical Cmax for an agent had not been determined, the highest concentration tested was 10 microM.
2.3 Cell Culture. All cells were maintained in an incubator at 37 degrees C and 5% CO2 with 95% humidity. The PDC lines were cultured according to standard operating procedures established by the NCI PDMR. All PDCs were thawed and cultured in Matrigel-coated flasks prepared with a working solution of 1X Ham's F-12 nutrient mix, without supplementation (Invitrogen, cat. 11765054), 100 U/mL penicillin-streptomycin (Invitrogen, cat. 15140122), and 2.5% Matrigel (Corning Inc., cat. 354248) for the first three passages. The 857933-349-R-J2-PDC line was cultured in 6C/Colon 1B media, which includes advanced DMEM/F-12 (Thermo Fisher Scientific, cat. 12634028), 10 mM HEPES (Thermo Fisher Scientific, cat. 15630080), 1X GlutaMAX supplement (Thermo Fisher Scientific, cat. 35050061), 0.1 mg/mL primocin (InvivoGen, cat. ant-pm-2), 10% defined fetal bovine serum, heat inactivated (HyClone Laboratories Inc., cat. SH30070.03HI), 50% L-WRN conditioned media (ATCC, cat. CRL-3276), 1.25 mM N-Acetyl-L-cysteine (Sigma-Aldrich, cat. A9165), 10 mM nicotinamide (Sigma-Aldrich, cat. N0636), 1X B-27 supplement (Thermo Fisher Scientific, cat. 17504044), 1X N-2 supplement (Thermo Fisher Scientific, cat. 17502048), 10 microM Y-27632 dihydrochloride (Tocris Bioscience, cat. 1254), and 50 ng/mL human EGF recombinant protein (Thermo Fisher Scientific, cat. PHG0311). The 485176-168-R4-J1-PDC line was cultured in Panc media, which includes all 6C/Colon 1B media components plus 100 ng/mL human FGF-10 (Thermo Fisher Scientific, cat. 100-26), 500 nM SB-431542 (Selleckchem, cat. S1067), and gastrin (Tocris, cat. 3006).
[…]
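Note: spheroids exposed to compounds for seven days.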

In order of falling viability, T/C:
1. O=C(c1cc(Cc2n[nH]c(=O)c3ccccc23)ccc1F)N1CCN(C(=O)C2CC2)CC1 + Cc1[nH]c2ccc(F)cc2c1-c1nc2c3cccnc3c3ncccc3c2[nH]1  107%
2. CC1COCCN1c1cc(C2(O)CC3CCC(C2)O3)c2cnn(-c3ccn[nH]3)c2n1 (configuration not stated) + Cc1[nH]c2ccc(F)cc2c1-c1nc2c3cccnc3c3ncccc3c2[nH]1  58.3%

same assay, conditions: second compound 3.16 µM; first compound 0.316 µM; stronger effect = lower value; spheroids with HUVEC and MSC

In order of rising viability, T/C:
1. CC1COCCN1c1cc(C2(O)CC3CCC(C2)O3)c2cnn(-c3ccn[nH]3)c2n1 (configuration not stated) + Cc1[nH]c2ccc(F)cc2c1-c1nc2c3cccnc3c3ncccc3c2[nH]1  31.7%
2. C=CCn1c(=O)c2cnc(Nc3ccc(N4CCN(C)CC4)cc3)nc2n1-c1cccc(C(C)(C)O)n1 + CN(C)c1ccc(Nc2c3ccc(NC(=O)CCN4CCCC4)cc3nc3cc(NC(=O)CCN4CCCC4)ccc23)cc1  61.9%
3. O=C(c1cc(Cc2n[nH]c(=O)c3ccccc23)ccc1F)N1CCN(C(=O)C2CC2)CC1 + Cc1[nH]c2ccc(F)cc2c1-c1nc2c3cccnc3c3ncccc3c2[nH]1  84%

same assay, conditions: second compound 3.16 µM; first compound 1 µM; stronger effect = lower value; spheroids with HUVEC and MSC

In order of falling viability, T/C:
1. O=C(c1cc(Cc2n[nH]c(=O)c3ccccc23)ccc1F)N1CCN(C(=O)C2CC2)CC1 + Cc1[nH]c2ccc(F)cc2c1-c1nc2c3cccnc3c3ncccc3c2[nH]1  87.7%
2. CC1COCCN1c1cc(C2(O)CC3CCC(C2)O3)c2cnn(-c3ccn[nH]3)c2n1 (configuration not stated) + Cc1[nH]c2ccc(F)cc2c1-c1nc2c3cccnc3c3ncccc3c2[nH]1  21.8%
3. C=CCn1c(=O)c2cnc(Nc3ccc(N4CCN(C)CC4)cc3)nc2n1-c1cccc(C(C)(C)O)n1 + CN(C)c1ccc(Nc2c3ccc(NC(=O)CCN4CCCC4)cc3nc3cc(NC(=O)CCN4CCCC4)ccc23)cc1  14.7%

same assay, conditions: second compound 3.16 µM; first compound 3.16 µM; stronger effect = lower value; spheroids with HUVEC and MSC

In order of rising viability, T/C:
1. C=CCn1c(=O)c2cnc(Nc3ccc(N4CCN(C)CC4)cc3)nc2n1-c1cccc(C(C)(C)O)n1 + CN(C)c1ccc(Nc2c3ccc(NC(=O)CCN4CCCC4)cc3nc3cc(NC(=O)CCN4CCCC4)ccc23)cc1  8.4%
2. CC1COCCN1c1cc(C2(O)CC3CCC(C2)O3)c2cnn(-c3ccn[nH]3)c2n1 (configuration not stated) + Cc1[nH]c2ccc(F)cc2c1-c1nc2c3cccnc3c3ncccc3c2[nH]1  21.6%
3. O=C(c1cc(Cc2n[nH]c(=O)c3ccccc23)ccc1F)N1CCN(C(=O)C2CC2)CC1 + Cc1[nH]c2ccc(F)cc2c1-c1nc2c3cccnc3c3ncccc3c2[nH]1  77.6%

same assay, conditions: second compound 3.16 µM; first compound 10 µM; stronger effect = lower value; spheroids with HUVEC and MSC

In order of falling viability, T/C:
1. O=C(c1cc(Cc2n[nH]c(=O)c3ccccc23)ccc1F)N1CCN(C(=O)C2CC2)CC1 + Cc1[nH]c2ccc(F)cc2c1-c1nc2c3cccnc3c3ncccc3c2[nH]1  63.3%
2. CC1COCCN1c1cc(C2(O)CC3CCC(C2)O3)c2cnn(-c3ccn[nH]3)c2n1 (configuration not stated) + Cc1[nH]c2ccc(F)cc2c1-c1nc2c3cccnc3c3ncccc3c2[nH]1  12.6%
3. C=CCn1c(=O)c2cnc(Nc3ccc(N4CCN(C)CC4)cc3)nc2n1-c1cccc(C(C)(C)O)n1 + CN(C)c1ccc(Nc2c3ccc(NC(=O)CCN4CCCC4)cc3nc3cc(NC(=O)CCN4CCCC4)ccc23)cc1  12.1%

same assay, conditions: second compound 10 µM; first compound 0.0316 µM; stronger effect = lower value; spheroids with HUVEC and MSC

In order of rising viability, T/C:
1. C=CCn1c(=O)c2cnc(Nc3ccc(N4CCN(C)CC4)cc3)nc2n1-c1cccc(C(C)(C)O)n1 + CN(C)c1ccc(Nc2c3ccc(NC(=O)CCN4CCCC4)cc3nc3cc(NC(=O)CCN4CCCC4)ccc23)cc1  71.4%
2. CC1COCCN1c1cc(C2(O)CC3CCC(C2)O3)c2cnn(-c3ccn[nH]3)c2n1 (configuration not stated) + Cc1[nH]c2ccc(F)cc2c1-c1nc2c3cccnc3c3ncccc3c2[nH]1  79.5%
3. O=C(c1cc(Cc2n[nH]c(=O)c3ccccc23)ccc1F)N1CCN(C(=O)C2CC2)CC1 + Cc1[nH]c2ccc(F)cc2c1-c1nc2c3cccnc3c3ncccc3c2[nH]1  94.1%

same assay, conditions: second compound 10 µM; first compound 0.1 µM; stronger effect = lower value; spheroids with HUVEC and MSC

In order of falling viability, T/C:
1. O=C(c1cc(Cc2n[nH]c(=O)c3ccccc23)ccc1F)N1CCN(C(=O)C2CC2)CC1 + Cc1[nH]c2ccc(F)cc2c1-c1nc2c3cccnc3c3ncccc3c2[nH]1  81.4%
2. C=CCn1c(=O)c2cnc(Nc3ccc(N4CCN(C)CC4)cc3)nc2n1-c1cccc(C(C)(C)O)n1 + CN(C)c1ccc(Nc2c3ccc(NC(=O)CCN4CCCC4)cc3nc3cc(NC(=O)CCN4CCCC4)ccc23)cc1  78.3%
3. CC1COCCN1c1cc(C2(O)CC3CCC(C2)O3)c2cnn(-c3ccn[nH]3)c2n1 (configuration not stated) + Cc1[nH]c2ccc(F)cc2c1-c1nc2c3cccnc3c3ncccc3c2[nH]1  53.6%

same assay, conditions: second compound 10 µM; first compound 0.316 µM; stronger effect = lower value; spheroids with HUVEC and MSC

In order of rising viability, T/C:
1. CC1COCCN1c1cc(C2(O)CC3CCC(C2)O3)c2cnn(-c3ccn[nH]3)c2n1 (configuration not stated) + Cc1[nH]c2ccc(F)cc2c1-c1nc2c3cccnc3c3ncccc3c2[nH]1  26.2%
2. C=CCn1c(=O)c2cnc(Nc3ccc(N4CCN(C)CC4)cc3)nc2n1-c1cccc(C(C)(C)O)n1 + CN(C)c1ccc(Nc2c3ccc(NC(=O)CCN4CCCC4)cc3nc3cc(NC(=O)CCN4CCCC4)ccc23)cc1  57.8%
3. O=C(c1cc(Cc2n[nH]c(=O)c3ccccc23)ccc1F)N1CCN(C(=O)C2CC2)CC1 + Cc1[nH]c2ccc(F)cc2c1-c1nc2c3cccnc3c3ncccc3c2[nH]1  90.9%

same assay, conditions: second compound 10 µM; first compound 1 µM; stronger effect = lower value; spheroids with HUVEC and MSC

In order of falling viability, T/C:
1. O=C(c1cc(Cc2n[nH]c(=O)c3ccccc23)ccc1F)N1CCN(C(=O)C2CC2)CC1 + Cc1[nH]c2ccc(F)cc2c1-c1nc2c3cccnc3c3ncccc3c2[nH]1  79.6%
2. C=CCn1c(=O)c2cnc(Nc3ccc(N4CCN(C)CC4)cc3)nc2n1-c1cccc(C(C)(C)O)n1 + CN(C)c1ccc(Nc2c3ccc(NC(=O)CCN4CCCC4)cc3nc3cc(NC(=O)CCN4CCCC4)ccc23)cc1  25.7%
3. CC1COCCN1c1cc(C2(O)CC3CCC(C2)O3)c2cnn(-c3ccn[nH]3)c2n1 (configuration not stated) + Cc1[nH]c2ccc(F)cc2c1-c1nc2c3cccnc3c3ncccc3c2[nH]1  22.4%

same assay, conditions: second compound 10 µM; first compound 3.16 µM; stronger effect = lower value; spheroids with HUVEC and MSC

In order of falling viability, T/C:
1. O=C(c1cc(Cc2n[nH]c(=O)c3ccccc23)ccc1F)N1CCN(C(=O)C2CC2)CC1 + Cc1[nH]c2ccc(F)cc2c1-c1nc2c3cccnc3c3ncccc3c2[nH]1  73.2%
2. CC1COCCN1c1cc(C2(O)CC3CCC(C2)O3)c2cnn(-c3ccn[nH]3)c2n1 (configuration not stated) + Cc1[nH]c2ccc(F)cc2c1-c1nc2c3cccnc3c3ncccc3c2[nH]1  20.3%
3. C=CCn1c(=O)c2cnc(Nc3ccc(N4CCN(C)CC4)cc3)nc2n1-c1cccc(C(C)(C)O)n1 + CN(C)c1ccc(Nc2c3ccc(NC(=O)CCN4CCCC4)cc3nc3cc(NC(=O)CCN4CCCC4)ccc23)cc1  11.2%

same assay, conditions: second compound 10 µM; first compound 10 µM; stronger effect = lower value; spheroids with HUVEC and MSC

In order of falling viability, T/C:
1. O=C(c1cc(Cc2n[nH]c(=O)c3ccccc23)ccc1F)N1CCN(C(=O)C2CC2)CC1 + Cc1[nH]c2ccc(F)cc2c1-c1nc2c3cccnc3c3ncccc3c2[nH]1  61.5%
2. CC1COCCN1c1cc(C2(O)CC3CCC(C2)O3)c2cnn(-c3ccn[nH]3)c2n1 (configuration not stated) + Cc1[nH]c2ccc(F)cc2c1-c1nc2c3cccnc3c3ncccc3c2[nH]1  12.6%
3. C=CCn1c(=O)c2cnc(Nc3ccc(N4CCN(C)CC4)cc3)nc2n1-c1cccc(C(C)(C)O)n1 + CN(C)c1ccc(Nc2c3ccc(NC(=O)CCN4CCCC4)cc3nc3cc(NC(=O)CCN4CCCC4)ccc23)cc1  10.8%

— PubChem BioAssay AID2060508 (Molecular Pharmacology Branch, DTP, NCI, 2025)
